From US6759408B2 (Wyeth, priority 1999, dated 2004)

tested on: not given; test: not given; details: not given

| SMILES | melting point |
| --- | --- |
| Cc1cc(C#N)sc1-c1ccc2c(c1)C1(CCCCC1)OC(=O)N2 [Compound 10, 5-(1,2-Dihydro-2-oxospiro[4H-3,1-benzoxazine-4,1-cyclohexan]-6-yl)-4-methyl-2-thiophenecarbonitrile] | 200 to 203 °C |
| CC1(C)OC(=O)Nc2ccc(-c3csc(C#N)c3)cc21 [Compound 17, 4-(4,4-Dimethyl-2-oxo-1,4-dihydro-2H-benzo[d][1,3]oxazin-6-yl)-thiophene-2-carbonitrile] | 230 to 231 °C (dec.) |
| Cc1cc(C#N)sc1-c1ccc2c(c1)C(C)(C)OC(=O)N2 [Compound 18, 5-(4,4-Dimethyl-2-oxo-1,4-dihydro-2H-benzo[d][1,3]oxazin-6-yl)-4-methyl-thiophene-2-carbonitrile] | 195 to 200 °C |
| CC1(C)OC(=O)Nc2ccc(-c3cccc(Cl)c3)cc21 [Example 5, 6-(3-Chlorophenyl)-4,4-dimethyl-1,4-dihydrobenzo[d][1,3]oxazin-2-one] | 158 to 159 °C |
| CC1(C)OC(=O)Nc2ccc(-c3cccc(C#N)c3)cc21 [Example 12, 3-(4,4-Dimethyl-2-oxo-1,4-dihydro-2H-benzo[d][1,3]oxazin-6-yl)-benzonitrile] | 236 to 237 °C |
| CC1(C)OC(=O)Nc2ccc(-c3cncc(C#N)c3)cc21 [Example 16, 5-(4,4-Dimethyl-2-oxo-1,4-dihydro-2H-benzo[d][1,3]oxazin-6-yl)-nicotinonitrile] | 290 to 291 °C |
| CC1(C)OC(=O)Nc2ccc(-c3coc(C#N)c3)cc21 [Example 23, 4-(4,4-Dimethyl-2-oxo-1,4-dihydro-2H-benzo[d][1,3]oxazin-6-yl)-furan-2-carbonitrile] | 255 to 256 °C |
| CCC1(CC)OC(=O)Nc2ccc(-c3cccc([N+](=O)[O-])c3)cc21 [Example 24, 4,4-Diethyl-6-(3-nitrophenyl)-1,4-dihydrobenzo[d][1,3]oxazin-2-one] | 193 to 194 °C |
| CCC1(CC)OC(=O)Nc2ccc(-c3cccc(Cl)c3)cc21 [Example 25, 6-(3-Chlorophenyl)-4,4-diethyl-1,4-dihydrobenzo[d][1,3]oxazin-2-one] | 150 to 151 °C |
| CC#CC1(C)OC(=O)Nc2ccc(-c3cccc(Cl)c3)cc21 (centres unmarked) [Example 37, 6-(3-Chlorophenyl)-4-methyl-4-propyn-1-yl-1,4-dihydro-benzo[d][1,3]oxazin-2-one] | 184 to 185 °C |
| C#CC1(C)OC(=O)Nc2ccc(-c3cccc(Cl)c3)cc21 (centres unmarked) [Example 38, 6-(3-Chlorophenyl)-4-ethynyl-4-methyl-1,4-dihydro-benzo[d][1,3]oxazin-2-one] | 185 to 186 °C |
| O=C1Nc2ccc(-c3cccc(Cl)c3)cc2C(C2CC2)(C2CC2)O1 [Example 43, 6-(3-Chloro-phenyl)-4,4-dicyclopropyl-1,4-dihydro-benzo[d][1,3]oxazin-2-one] | 198 to 200 °C |
| COc1cccc(-c2ccc3c(c2)C(C)(C(F)(F)F)OC(=O)N3)c1 (centres unmarked) [Example 48, 6-(3-Methoxyphenyl)-4-methyl-4-trifluoromethyl-1,4-dihydro-benzo[d][1,3]oxazin-2-one] | 178 to 179 °C |
| O=C1Nc2ccc(-c3cc(F)cc(Br)c3)cc2C(C2CC2)(C2CC2)O1 [Example 54, 6-(3-Bromo-5-fluoro-phenyl)-4,4-dicyclopropyl-1,4-dihydrobenzo-[d][1,3]oxazin-2-one] | 228 to 229 °C |
| Cc1cc(Br)cc(-c2ccc3c(c2)C(C)(C)OC(=O)N3)c1 [Example 56, 6-(3-Bromo-5-methyl-phenyl)-4,4-dimethyl-1,4-dihydrobenzo-[d][1,3]oxazin-2-one] | 231 to 233 °C |
| Cc1cc(C#N)cc(-c2ccc3c(c2)C(C)(C)OC(=O)N3)c1 [Example 58, 3-(4,4-Dimethyl-2-oxo-1,4-dihydro-2H-benzo[d][1,3]oxazin-6-yl)-5-methyl-benzonitrile] | 256 to 258 °C |
| CC1(C)OC(=O)Nc2ccc(-c3cccc(C#CC#N)c3)cc21 [Example 75, 3-[3-(4,4-Dimethyl-2-oxo-1,4-dihydro-2H-benzo[d][1,3]oxazin-6-yl)-phenyl]-propynenitrile] | 212 to 213 °C |
| CC1(C)OC(=O)Nc2ccc(-c3cc(C#N)cc(C#N)c3)cc21 [Example 80, 5-(4,4-Dimethyl-2-oxo-1,4-dihydro-2H-benzo[d][1,3]oxazin-6-yl)-isophthalonitrile] | 288 to 289 °C |
| CC1(C)OC(=O)Nc2ccc(-c3sccc3C#N)cc21 [Example 91, 2-(4,4-Dimethyl-2-oxo-1,4-dihydro-2H-benzo[d][1,3]oxazin-6-yl)-thiophene-3-carbonitrile] | 200 to 202 °C |
| CC1(C)OC(=O)Nc2ccc(-c3cc(F)cc(-c4ccsc4)c3)cc21 [Example 93, 6-(3-Fluoro-5-thiophen-3-yl-phenyl)-4,4-dimethyl-1,4-dihydro-benzo[d][1,3]oxazin-2-one] | 200 to 203 °C |
| CC(C)(C)OC(=O)n1cccc1-c1ccc2c(c1)C(C)(C)OC(=O)N2 [Example 94, 2-(4,4-Dimethyl-2-oxo-1,4dihydro-2H-benzo[d][1,3]oxazin-6-yl)-pyrrole-1-carboxylic acid tert-butyl ester] | 176 °C |
| CC1(C)OC(=O)Nc2ccc(-c3ccc([N+](=O)[O-])[nH]3)cc21 [Example 96, 4,4-Dimethyl-6-(5-nitro-1H-pyrrol-2-yl)-1,4-dihydrobenzo[d][1,3]oxazin-2-one] | 265 °C (dec.) |
| CC1(C)OC(=O)Nc2ccc(-c3cccc(S(N)(=O)=O)c3)cc21 [Example 140, 3-(4,4-Dimethyl-2-oxo-1,4-dihydro-2H-benzo[d][1,3]-oxazin-6-yl)benzenesulfonamide] | 242 to 244 °C (dec.) |
| CC1(C)OC(=O)Nc2ccc(-c3coc(C=NO)c3)cc21 [Example 145, 4-(1,4-Dihydro-4,4-dimethyl-2-oxo-2H-3,1-benzoxazin-6-yl)-2-furancarboxaldehyde oxime] | 236 to 238 °C |

tested on: rat uterine decidualization; test: Rat decidualization assay; assay type: in vivo; details: read-out: CV-1 IC50 (mg/kg): Percentage inhibition at the dose specified
Description: 1. Rat Decidualization Assay
b. Animals (RACUC Protocol #5002)
The animals are treated once daily for seven days.
Uteri are removed and trimmed of fat.
Body weight: Mean total animal body weight (default-kg)
Decidual response: [(D-C)/C]×100%

| SMILES | inhibition in vivo at 10 mg/kg |
| --- | --- |
| Cc1cc(C#N)sc1-c1ccc2c(c1)C1(CCCCC1)OC(=O)N2 [Compound 10, 5-(1,2-Dihydro-2-oxospiro[4H-3,1-benzoxazine-4,1-cyclohexan]-6-yl)-4-methyl-2-thiophenecarbonitrile] | 50% |
| N#Cc1ccc(-c2ccc3c(c2)C2(CCCCC2)OC(=O)N3)s1 [Compound 11, 5-(1,2-Dihydro-2-oxospiro[4H-3,1-benzoxazine-4,1-cyclohexan]-6-yl)-2-thiophenecarbonitrile] | 50% |
